Patent US12655106B2 (Eikonizo Therapeutics, Inc., priority 2021, dated 2026)

Experiments:
Full length Human HDAC6 = target: T1, Full length Human HDAC6 (Homo sapiens, UniProt Q9UBN7); test: Caliper endpoint assay for HDAC enzymatic activity (HDAC6); format: biochemical; conditions: for IC50: in vitro enzymatic, Caliper endpoint assay, 30 min pre-incubation, 1 μM substrate peptide; for Selectivity (6 v 8): ratio of HDAC8 IC50/HDAC6 IC50
T1 construct: Full length Human HDAC6; FLAG (C); host or cells: baculovirus expression system
T1 sequence (Q9UBN7 1-1215): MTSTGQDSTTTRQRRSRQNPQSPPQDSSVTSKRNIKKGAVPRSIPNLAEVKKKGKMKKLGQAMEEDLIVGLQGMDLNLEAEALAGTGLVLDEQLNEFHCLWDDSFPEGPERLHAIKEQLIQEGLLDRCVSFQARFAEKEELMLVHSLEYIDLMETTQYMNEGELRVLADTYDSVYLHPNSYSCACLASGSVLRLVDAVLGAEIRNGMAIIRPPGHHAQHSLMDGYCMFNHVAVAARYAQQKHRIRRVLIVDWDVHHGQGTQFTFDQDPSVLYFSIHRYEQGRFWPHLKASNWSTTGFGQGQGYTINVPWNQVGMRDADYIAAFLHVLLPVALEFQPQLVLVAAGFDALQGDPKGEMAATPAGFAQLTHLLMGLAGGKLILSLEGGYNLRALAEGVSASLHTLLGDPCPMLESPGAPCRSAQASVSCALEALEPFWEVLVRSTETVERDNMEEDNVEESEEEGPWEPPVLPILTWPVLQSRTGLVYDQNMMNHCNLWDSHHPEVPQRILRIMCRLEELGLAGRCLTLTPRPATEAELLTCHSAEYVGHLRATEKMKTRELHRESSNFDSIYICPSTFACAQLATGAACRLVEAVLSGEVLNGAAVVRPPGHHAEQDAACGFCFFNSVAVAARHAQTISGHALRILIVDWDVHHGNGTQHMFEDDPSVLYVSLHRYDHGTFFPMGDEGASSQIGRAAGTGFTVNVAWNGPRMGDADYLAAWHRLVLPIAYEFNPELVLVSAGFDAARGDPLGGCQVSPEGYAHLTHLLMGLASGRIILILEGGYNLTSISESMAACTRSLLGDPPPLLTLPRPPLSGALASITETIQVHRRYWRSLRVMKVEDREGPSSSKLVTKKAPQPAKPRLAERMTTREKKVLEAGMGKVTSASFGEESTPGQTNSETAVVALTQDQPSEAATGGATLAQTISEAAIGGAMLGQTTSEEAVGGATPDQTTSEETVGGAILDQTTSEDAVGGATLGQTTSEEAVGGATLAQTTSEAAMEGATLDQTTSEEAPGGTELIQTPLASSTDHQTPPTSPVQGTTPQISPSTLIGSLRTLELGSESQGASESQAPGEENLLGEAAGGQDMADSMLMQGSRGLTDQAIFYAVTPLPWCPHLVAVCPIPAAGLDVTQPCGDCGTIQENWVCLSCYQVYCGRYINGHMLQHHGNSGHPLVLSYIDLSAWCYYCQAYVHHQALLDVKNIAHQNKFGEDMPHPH

Full length Human HDAC8 = target: T2, Full length Human HDAC8 (Homo sapiens, UniProt Q9BY41); test: Caliper endpoint assay for HDAC enzymatic activity (HDAC8); format: biochemical; conditions: in vitro enzymatic, 30 min pre-incubation, 1 μM substrate peptide
T2 construct: Full length Human HDAC8; HIS (N); host or cells: baculovirus expression system
T2 sequence (Q9BY41 1-377): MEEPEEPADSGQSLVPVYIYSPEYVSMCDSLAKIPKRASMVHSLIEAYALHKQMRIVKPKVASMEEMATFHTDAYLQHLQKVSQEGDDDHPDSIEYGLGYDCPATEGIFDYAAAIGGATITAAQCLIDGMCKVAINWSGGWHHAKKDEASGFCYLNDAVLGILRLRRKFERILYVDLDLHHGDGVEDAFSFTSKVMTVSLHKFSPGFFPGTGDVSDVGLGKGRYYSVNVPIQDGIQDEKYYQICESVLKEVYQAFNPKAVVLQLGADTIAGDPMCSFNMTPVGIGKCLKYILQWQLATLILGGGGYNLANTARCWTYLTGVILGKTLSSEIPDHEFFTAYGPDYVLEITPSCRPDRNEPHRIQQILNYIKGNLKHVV

Row | Compound | IC50 (Full length Human HDAC6) [nM] | Selectivity (6 v 8) (Full length Human HDAC6) | IC50 (Full length Human HDAC8) [µM]
1 | O=C(NO)c1cc(F)c2c(c1)CCN(C1CCC3(CCCCC3)CC1)C2 [Compound 182, 8-fluoro-2-spiro[5.5]undecan-3-yl-3,4-dihydro-1H-isoquinoline-6-carbohydroxamic acid] | 1 to 100 | IV (IV: >100-1000) | 10 to 100
2 | O=C(NO)c1cc(F)c2c(c1)CCN1CCCC[C@H]21 (single isomer, unassigned) [Compound 140] | 1000 to 10000 | – | 10 to 100
3 | CC[C@H]1Cc2c(F)cc(C(=O)NO)cc2CN1C[C@]12CN[C@H](CO1)C2 (single isomer, unassigned) [Compound 549] | 1 to 100 | IV (IV: >100-1000) | 10 to 100
4 | O=C(NO)c1cc(F)c2c(c1)CCN(C1CC[C@@]13CCCO3)C2 (single isomer, unassigned) [Compound 319] | 1 to 100 | IV (IV: >100-1000) | 1 to 10
5 | O=C(NO)c1cc(F)c2c(c1)CCN([C@H]1CCCC3(CCC3)C1)C2 (single isomer, unassigned) [Compound 195] | 1 to 100 | IV (IV: >100-1000) | 10 to 100
6 | CN1CC[C@]2(CC[C@H](N3CCc4cc(C(=O)NO)cc(F)c4C3)C2)C1 (single isomer, unassigned) [Compound 403] | 1 to 100 | V (V: >1000) | 10 to 100
7 | CC(=O)N1CCC2(CCC(N3CCc4cc(C(=O)NO)cc(F)c4C3)C2)CC1 (centres unmarked) [Compound 419, 2-(8-acetyl-8-azaspiro[4.5]decan-3-yl)-8-fluoro-3,4-dihydro-1H-isoquinoline-6-carbohydroxamic acid] | 1 to 100 | IV (IV: >100-1000) | 10 to 100
8 | CC[C@@H]1Cc2c(F)cc(C(=O)NO)cc2CN1C1COC1 (single isomer, unassigned) [Compound 600] | 1 to 100 | IV (IV: >100-1000) | 1 to 10
9 | CC(=O)N1CC2(C[C@H](N3CCc4cc(C(=O)NO)cc(F)c4C3)CCO2)C1 (single isomer, unassigned) [Compound 453] | 1 to 100 | IV (IV: >100-1000) | 10 to 100
10 | O=C(NO)c1cc(F)c2c(c1)CCN(C1CC[C@]13CCCO3)C2 (single isomer, unassigned) [Compound 320] | 1 to 100 | IV (IV: >100-1000) | 10 to 100
11 | CN1Cc2cc(C(=O)NO)ccc2[C@@H]2CCCN21 (single isomer, unassigned) [Compound 160] | 100 to 1000 | – | 0.1 to 1
12 | O=C(NO)c1cc(F)c2c(c1)CCN(C1CC3(CCCC3)C1)C2 [Compound 183, 8-fluoro-N-hydroxy-2-(spiro[3.4]octan-2-yl)-1,2,3,4-tetrahydroisoquinoline-6-carboxamide] | 1 to 100 | V (V: >1000) | > 100
13 | C[C@H]1CC[C@@H]2c3c(F)cc(C(=O)NO)cc3CCN21 (single isomer, unassigned) [Compound 159] | 100 to 1000 | – | 1 to 10
14 | CC(=O)N1CCCCC12CC(N1CCc3cc(C(=O)NO)cc(F)c3C1)C2 (centres unmarked) [Compound 355, 2-(5-acetyl-5-azaspiro[3.5]nonan-2-yl)-8-fluoro-3,4-dihydro-1H-isoquinoline-6-carbohydroxamic acid] | 1 to 100 | V (V: >1000) | 10 to 100
15 | CC[C@H]1Cc2c(F)cc(C(=O)NO)cc2CN1C1CC2(CCOCC2)C1 (single isomer, unassigned) [Compound 591] | 1 to 100 | IV (IV: >100-1000) | 10 to 100
16 | O=C(NO)c1cc(F)c2c(c1)C[C@H]1COCCN1C2 (single isomer, unassigned) [Compound 130] | 10000 to 100000 | – | > 100

Row | Compound | IC50 (Full length Human HDAC6) [nM] | Selectivity (6 v 8) (Full length Human HDAC6) | IC50 (Full length Human HDAC8) [µM]
17 | CC[C@@H]1Cc2c(F)cc(C(=O)NO)cc2CN1C1CC(C)(C)C1 (single isomer, unassigned) [Compound 592] | 100 to 1000 | IV (IV: >100-1000) | 10 to 100
18 | O=C(NO)c1cc(F)c2c(c1)C[C@H]1CCCN1C2 [Compound 120] | 1 to 100 | IV (IV: >100-1000) | 1 to 10
19 | O=C(NO)c1ccc(CN2C[C@H]3CC[C@@H]2CO3)c(F)c1 [Compound 173] | 1 to 100 | – | 1 to 10
20 | CC[C@@H]1Cc2c(F)cc(C(=O)NO)cc2CN1CC1CC2(CCCCC2)C1 (single isomer, unassigned) [Compound 521] | 1 to 100 | III (III: >10-100) | 0.1 to 1
21 | O=C(NO)c1cc(F)c2c(c1)CCN([C@@H]1CCN(C3CC3)C3(CCC3)C1)C2 (single isomer, unassigned) [Compound 440] | 1 to 100 | IV (IV: >100-1000) | 1 to 10
22 | C[C@H]1C[C@@H]2c3c(F)cc(C(=O)NO)cc3CCN2C1 (single isomer, unassigned) [Compound 153] | 100 to 1000 | – | 1 to 10
23 | O=C(NO)c1cc(F)c2c(c1)CCN(C1CCC3(COC3)C1)C2 (centres unmarked) [Compound 387, 8-fluoro-2-(2-oxaspiro[3.4]octan-6-yl)-3,4-dihydro-1H-isoquinoline-6-carbohydroxamic acid] | 1 to 100 | IV (IV: >100-1000) | 10 to 100
24 | CC[C@H]1Cc2c(F)cc(C(=O)NO)cc2CN1CC12CC3CC(CC(C3)O1)C2 (single isomer, unassigned) [Compound 510] | 1 to 100 | IV (IV: >100-1000) | 1 to 10
25 | CC[C@H]1Cc2c(F)cc(C(=O)NO)cc2CN1CC1CCCCC1 (single isomer, unassigned) [Compound 518] | 1 to 100 | IV (IV: >100-1000) | 1 to 10
26 | O=C(NO)c1cc(F)c2c(c1)CCN(C1CC3(CNC3)C1)C2 [Compound 289, 2-(2-azaspiro[3.3]heptan-6-yl)-8-fluoro-3,4-dihydro-1H-isoquinoline-6-carbohydroxamic acid] | 1 to 100 | IV (IV: >100-1000) | 1 to 10
27 | CN1CCCCC12CC(N1CCc3cc(C(=O)NO)cc(F)c3C1)C2 (centres unmarked) [Compound 352, 8-fluoro-2-(5-methyl-5-azaspiro[3.5]nonan-2-yl)-3,4-dihydro-1H-isoquinoline-6-carbohydroxamic acid] | 1 to 100 | V (V: >1000) | > 100
28 | O=C(NO)c1cc(F)c2c(c1)CCN1CCCC[C@@H]21 (single isomer, unassigned) [Compound 139] | 1 to 100 | – | 1 to 10
29 | O=C(NO)c1cc(F)c2c(c1)CCN(C1CCC13CCNCC3)C2 (centres unmarked) [Compound 357, 2-(7-azaspiro[3.5]nonan-3-yl)-8-fluoro-3,4-dihydro-1H-isoquinoline-6-carbohydroxamic acid] | 1 to 100 | IV (IV: >100-1000) | 1 to 10
30 | O=C(NO)c1cc(F)c2c(c1)CCN([C@H]1CC[C@]13CCOC3)C2 (single isomer, unassigned) [Compound 316] | 1 to 100 | V (V: >1000) | 10 to 100
31 | CC[C@@H]1Cc2c(F)cc(C(=O)NO)cc2CN1CC12CC3CC(CC(C3)C1)C2 (single isomer, unassigned) [Compound 507] | 100 to 1000 | III (III: >10-100) | 1 to 10
